Data from patent US8802661B2, “C-28 amides of modified C-3 betulinic acid derivatives as HIV maturation inhibitors” (priority 2010, dated 2014).
Where two headings read alike, the source gives them in different places.

Tested on: recombinant NL4-3 virus (Renilla luciferase in nef, Gag P373S)
Experiment: HIV Cell Culture Assay (luciferase reporter virus in MT-2 cells)
Type: cell-based
Procedure, shortened: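 First, reporter virus was generated in 293T cells and titered on MT-2 cells. Next, MT-2 cells were infected in the presence of serial compound dilutions for 4-5 days. Finally, cells were lysed and luciferase activity was measured to quantify inhibition.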

SMILES | EC50 (NL43, read-out: EC50 Group) | EC50 (NL43)
C=C(C)[C@@H]1CC[C@]2(C(=O)NCCNCCC(=O)O)CC[C@]3(C)[C@H](CC[C@@H]4[C@@]5(C)CC=C(c6ccc(C(=O)O)cc6)C(C)(C)[C@@H]5CC[C@]43C)[C@@H]12 [Example 91, 4-((1R,3aS,5aR,5bR,7aR,11aS,11bR,13aR,13bR)-3a-(2-(2-carboxyethylamino)ethylcarbamoyl)-5a,5b,8,8,11a-pentamethyl-1-(prop-1-en-2-yl)-2,3,3a,4,5,5a,5b,6,7,7a,8,11,11a,11b,12,13,13a,13b-octadecahydro-1H-cyclopenta[a]chrysen-9-yl)benzoic acid] | < 100 nM | 
C=C(C)[C@@H]1CC[C@]2(C(=O)NCCNCCS(=O)(=O)O)CC[C@]3(C)[C@H](CC[C@@H]4[C@@]5(C)CC=C(c6ccc(C(=O)O)cc6)C(C)(C)[C@@H]5CC[C@]43C)[C@@H]12 [Example 92, 4-((1R,3aS,5aR,5bR,7aR,11aS,11bR,13aR,13bR)-5a,5b,8,8,11a-pentamethyl-1-(prop-1-en-2-yl)-3a-(2-(2-sulfoethylamino)ethylcarbamoyl)-2,3,3a,4,5,5a,5b,6,7,7a,8,11,11a,11b,12,13,13a,13b-octadecahydro-1H-cyclopenta[a]chrysen-9-yl)benzoic acid] | < 100 nM | 
C=C(C)[C@@H]1CC[C@]2(C(=O)NCCN(CCC)CCC(=O)O)CC[C@]3(C)[C@H](CC[C@@H]4[C@@]5(C)CC=C(c6ccc(C(=O)O)cc6)C(C)(C)[C@@H]5CC[C@]43C)[C@@H]12 [Example 93, 4-((1R,3aS,5aR,5bR,7aR,11aS,11bR,13aR,13bR)-3a-(2-((2-carboxyethyl)(propyl)amino)ethylcarbamoyl)-5a,5b,8,8,11a-pentamethyl-1-(prop-1-en-2-yl)-2,3,3a,4,5,5a,5b,6,7,7a,8,11,11a,11b,12,13,13a,13b-octadecahydro-1H-cyclopenta[a]chrysen-9-yl)benzoic acid] | < 100 nM | 
C=C(C)[C@@H]1CC[C@]2(C(=O)NCCN(CCC)CC(=O)O)CC[C@]3(C)[C@H](CC[C@@H]4[C@@]5(C)CC=C(c6ccc(C(=O)O)cc6)C(C)(C)[C@@H]5CC[C@]43C)[C@@H]12 [Example 94, 4-((1R,3aS,5aR,5bR,7aR,11aS,11bR,13aR,13bR)-3a-(2-((carboxymethyl)(propyl)amino)ethylcarbamoyl)-5a,5b,8,8,11a-pentamethyl-1-(prop-1-en-2-yl)-2,3,3a,4,5,5a,5b,6,7,7a,8,11,11a,11b,12,13,13a,13b-octadecahydro-1H-cyclopenta[a]chrysen-9-yl)benzoic acid] | < 100 nM | 
C=C(C)[C@@H]1CC[C@]2(C(=O)NCCN(CC(=O)O)C(C)C)CC[C@]3(C)[C@H](CC[C@@H]4[C@@]5(C)CC=C(c6ccc(C(=O)O)cc6)C(C)(C)[C@@H]5CC[C@]43C)[C@@H]12 [Example 95, 4-((1R,3aS,5aR,5bR,7aR,11aS,11bR,13aR,13bR)-3a-(2-((carboxymethyl)(isopropyl)amino)ethylcarbamoyl)-5a,5b,8,8,11a-pentamethyl-1-(prop-1-en-2-yl)-2,3,3a,4,5,5a,5b,6,7,7a,8,11,11a,11b,12,13,13a,13b-octadecahydro-1H-cyclopenta[a]chrysen-9-yl)benzoic acid] | < 100 nM | 
C=C(C)[C@@H]1CC[C@]2(C(=O)NCCN(CCC(=O)O)C(C)C)CC[C@]3(C)[C@H](CC[C@@H]4[C@@]5(C)CC=C(c6ccc(C(=O)O)cc6)C(C)(C)[C@@H]5CC[C@]43C)[C@@H]12 [Example 96, 4-((1R,3aS,5aR,5bR,7aR,11aS,11bR,13aR,13bR)-3a-(2-((2-carboxyethyl)(isopropyl)amino)ethylcarbamoyl)-5a,5b,8,8,11a-pentamethyl-1-(prop-1-en-2-yl)-2,3,3a,4,5,5a,5b,6,7,7a,8,11,11a,11b,12,13,13a,13b-octadecahydro-1H-cyclopenta[a]chrysen-9-yl)benzoic acid] | < 100 nM | 
CC(C)[C@@H]1CC[C@]2(C(=O)NCC[N+](C)(C)[O-])CC[C@]3(C)[C@H](CC[C@@H]4[C@@]5(C)CC=C(c6ccc(C(=O)O)cc6)C(C)(C)[C@@H]5CC[C@]43C)[C@@H]12 [Example 97, 2-((1S,3aS,5aR,5bR,7aR,11aS,11bR,13aR,13bR)-9-(4-carboxyphenyl)-1-isopropyl-5a,5b,8,8,11a-pentamethyl-2,3,3a,4,5,5a,5b,6,7,7a,8,11,11a,11b,12,13,13a,13b-octadecahydro-1H-cyclopenta[a]chrysene-3a-carboxamido)-N,N-dimethylethanamine oxide] |  | 2.6 nM
C=C(C)[C@@H]1CC[C@]2(C(=O)NCCCN)CC[C@]3(C)[C@H](CC[C@@H]4[C@@]5(C)CC=C(c6ccc(C(=O)O)cc6)C(C)(C)[C@@H]5CC[C@]43C)[C@@H]12 [Example 98, 4-((1R,3aS,5aR,5bR,7aR,11aS,11bR,13aR,13bR)-3a-(3-aminopropylcarbamoyl)-5a,5b,8,8,11a-pentamethyl-1-(prop-1-en-2-yl)-2,3,3a,4,5,5a,5b,6,7,7a,8,11,11a,11b,12,13,13a,13b-octadecahydro-1H-cyclopenta[a]chrysen-9-yl)benzoic acid] | < 100 nM | 
C=C(C)[C@@H]1CC[C@]2(C(=O)NCCCN(CC)CCC(=O)O)CC[C@]3(C)[C@H](CC[C@@H]4[C@@]5(C)CC=C(c6ccc(C(=O)O)cc6)C(C)(C)[C@@H]5CC[C@]43C)[C@@H]12 [Example 99, 4-((1R,3aS,5aR,5bR,7aR,11aS,11bR,13aR,13bR)-3a-(3-((2-carboxyethyl)(ethyl)amino)propylcarbamoyl)-5a,5b,8,8,11a-pentamethyl-1-(prop-1-en-2-yl)-2,3,3a,4,5,5a,5b,6,7,7a,8,11,11a,11b,12,13,13a,13b-octadecahydro-1H-cyclopenta[a]chrysen-9-yl)benzoic acid] | < 100 nM | 
C=C(C)[C@@H]1CC[C@]2(C(=O)NCCCN(CCC(=O)O)CCC(=O)O)CC[C@]3(C)[C@H](CC[C@@H]4[C@@]5(C)CC=C(c6ccc(C(=O)O)cc6)C(C)(C)[C@@H]5CC[C@]43C)[C@@H]12 [Example 100, 3,3′-(3-((1R,3aS,5aR,5bR,7aR,11aS,11bR,13aR,13bR)-9-(4-carboxyphenyl)-5a,5b,8,8,11a-pentamethyl-1-(prop-1-en-2-yl)-2,3,3a,4,5,5a,5b,6,7,7a,8,11,11a,11b,12,13,13a,13b-octadecahydro-1H-cyclopenta[a]chrysene-3a-carboxamido)propylazanediyl)dipropanoic acid] | > 100 nM | 
C=C(C)[C@@H]1CC[C@]2(C(=O)NCCCN(CC)CCCC(=O)O)CC[C@]3(C)[C@H](CC[C@@H]4[C@@]5(C)CC=C(c6ccc(C(=O)O)cc6)C(C)(C)[C@@H]5CC[C@]43C)[C@@H]12 [Example 101, 4-((1R,3aS,5aR,5bR,7aR,11aS,11bR,13aR,13bR)-3a-(3-((3-carboxypropyl)(ethyl)amino)propylcarbamoyl)-5a,5b,8,8,11a-pentamethyl-1-(prop-1-en-2-yl)-2,3,3a,4,5,5a,5b,6,7,7a,8,11,11a,11b,12,13,13a,13b-octadecahydro-1H-cyclopenta[a]chrysen-9-yl)benzoic acid] | < 100 nM | 
C=C(C)[C@@H]1CC[C@]2(C(=O)NCCCN(CC)CC(=O)O)CC[C@]3(C)[C@H](CC[C@@H]4[C@@]5(C)CC=C(c6ccc(C(=O)O)cc6)C(C)(C)[C@@H]5CC[C@]43C)[C@@H]12 [Example 102, 4-((1R,3aS,5aR,5bR,7aR,11aS,11bR,13aR,13bR)-3a-(3-((carboxymethyl)(ethyl)amino)propylcarbamoyl)-5a,5b,8,8,11a-pentamethyl-1-(prop-1-en-2-yl)-2,3,3a,4,5,5a,5b,6,7,7a,8,11,11a,11b,12,13,13a,13b-octadecahydro-1H-cyclopenta[a]chrysen-9-yl)benzoic acid] |  | 10.5 nM
C=C(C)[C@@H]1CC[C@]2(C(=O)NCCN(CC)CCCC(=O)O)CC[C@]3(C)[C@H](CC[C@@H]4[C@@]5(C)CC=C(c6ccc(C(=O)O)cc6)C(C)(C)[C@@H]5CC[C@]43C)[C@@H]12 [Example 103, 4-((1R,3aS,5aR,5bR,7aR,11aS,11bR,13aR,13bR)-3a-(2-((3-carboxypropyl)(ethyl)amino)ethylcarbamoyl)-5a,5b,8,8,11a-pentamethyl-1-(prop-1-en-2-yl)-2,3,3a,4,5,5a,5b,6,7,7a,8,11,11a,11b,12,13,13a,13b-octadecahydro-1H-cyclopenta[a]chrysen-9-yl)benzoic acid] | < 100 nM | 
C=C(C)[C@@H]1CC[C@]2(C(=O)NCCN(C)C)CC[C@]3(C)[C@H](CC[C@@H]4[C@@]5(C)CC=C(c6ccc(C(=O)O)c(F)c6)C(C)(C)[C@@H]5CC[C@]43C)[C@@H]12 [Example 104, 4-((1R,3aS,5aR,5bR,7aR,11aS,11bR,13aR,13bR)-3a-(2-(dimethylamino)ethylcarbamoyl)-5a,5b,8,8,11a-pentamethyl-1-(prop-1-en-2-yl)-2,3,3a,4,5,5a,5b,6,7,7a,8,11,11a,11b,12,13,13a,13b-octadecahydro-1H-cyclopenta[a]chrysen-9-yl)-2-fluorobenzoic acid] | < 100 nM | 
C=C(C)[C@@H]1CC[C@]2(C(=O)NCCCN3CCS(=O)(=O)CC3)CC[C@]3(C)[C@H](CC[C@@H]4[C@@]5(C)CC=C(c6ccc(C(=O)O)c(F)c6)C(C)(C)[C@@H]5CC[C@]43C)[C@@H]12 [Example 105, 4-((1R,3aS,5aR,5bR,7aR,11aS,11bR,13aR,13bR)-3a-((3-(1,1-dioxido-4-thiomorpholinyl)propyl)carbamoyl)-1-isopropenyl-5a,5b,8,8,11a-pentamethyl-2,3,3a,4,5,5a,5b,6,7,7a,8,11,11a,11b,12,13,13a,13b-octadecahydro-1H-cyclopenta[a]chrysen-9-yl)-2-fluorobenzoic acid] | < 100 nM | 
